What all share (test): In vitro antibacterial activity, MIC by agar double dilution method
Common to all, as to assay type: cell-based

Experiment [1] deals with Staphylococcus epidermidis resistant strains (5 strains). Particulars: clinical isolates. The text has this: (§1) Experimental method: The agar double dilution method (Antimicrob. Agents and Chemother, 40, 1996, 720-726) was used to determine the minimum inhibitory concentration (MIC) of the series of compounds of the invention and the positive control drug linezolid for the test strains. The multipoint inoculation system (Denley A400) was employed to inoculate the bacteria on the agar plate surface with different concentrations of drugs; inoculation amount on each point was about 10^6 CFU/mL. The plates were incubated at 35° C. for 16 hrs before the results were observed. The lowest drug concentration contained in the Petri dish without bacterial growth was used as the minimum inhibitory concentration (MIC value) of the drug fir that strain.
(§2) Test strains: All the test strains were clinically isolated pathogens which were collected from the Nanjing region, and they were re-identified by routine methods before use. 31 strains of the clinically isolated pathogens were chosen, including 6 strains of Enterococcus, 5 Staphylococcus aureus sensitive strains; 5 Staphylococcus epidermidis sensitive strains; 6 Staphylococcus aureus resistant strains; 5 Staphylococcus epidermidis resistant strains; and 4 Streptococcus pneumoniae resistant strains.
(§3) Compounds to be tested were first added 2 ml of DMSO to help them fully dissolved, then added sterile double distilled water to the desired concentration; to all the Petri dish with added drug liquid were added 20 mL MIT medium which was heat-melted to be liquid-like, to make the final drug concentration in the Petri dish to be 64, 32, 16, 8, 4, 2, 1, 0.5, 0.25, 0.125, 0.0625, and 0.031 μg/mL.
(§4) The positive control group was LZ (linezolid, brand name Zyvox, approved by the FDA in 2000 to be firstly sold in the United States, which is the first and also the only one of oxazolidinone antibacterial drugs allowed to enter clinical application).

The test system of the next experiment is Enterococcus (6 strains). Particulars: clinical isolates, 35° C. 16 hrs.
Description: as §1, §2, §3, §4

The subject of experiment [2] is Staphylococcus aureus sensitive strains (5 strains). The following applies: clinical isolates.
Description: as §1, §2, §3, §4

The subject of experiment [3] is Streptococcus pneumoniae resistant strains (4 strains). Particulars: clinical isolates.
Description: as §1, §2, §3, §4

Experiment [4] has as its system Staphylococcus aureus resistant strains (6 strains). Particulars: clinical isolates.
Description: as §1, §2, §3, §4

In experiment [5] the test system is Staphylococcus epidermidis sensitive strains (5 strains). The following applies: clinical isolates.
Description: as §1, §2, §3, §4

SMILES strings stand for the structures. ≈ marks a conversion by molar mass, not a printed value.

In general, MIC refers to the least concentration at which growth counts as inhibited. A higher MIC goes with a need for much substance. With `O=C1O[C@@H](CO)CN1c1ccc(-c2ccc3c(c2)OC[C@H]2[C@H](CO)OC(=O)N32)cn1` [Compound 26, (3R,3aS)-3-(hydroxylmethyl)-7-(6-((R)-5-(hydroxylmethyl)-2-oxo-oxazolidin-3-yl)pyridin-3-yl)-3a,4-dihydrobenzo[b]oxazolo[3,4-d][1,4]oxazin-1(3H)-one], the MIC in experiment [1] was 0.5 to 1 µg/mL (≈ 1.21 to 2.42 µM); against Enterococcus (6 strains), 0.5 to 1 µg/mL (≈ 1.21 to 2.42 µM); in experiment [2], 0.5 to 1 µg/mL (≈ 1.21 to 2.42 µM); in experiment [3] it was 1 µg/mL (≈ 2.42 µM); in experiment [4], 0.5 to 1 µg/mL (≈ 1.21 to 2.42 µM); in experiment [5], 0.5 to 1 µg/mL (≈ 1.21 to 2.42 µM).

In the case of `CN1C[C@@H](c2ccc(-c3ccc4c(c3)OC[C@H]3[C@H](CO)OC(=O)N43)cn2)OC1=O` [Compound 27, (3R,3aS)-3-(hydroxylmethyl)-7-(6-((R)-3-methyl-2-oxazolidin-5-yl)pyridin-3-yl)-3a,4-dihydrobenzo[b]oxazolo[3,4-d][1,4]oxazin-1(3H)-one], the MIC in experiment [1] is 0.5 to 1 µg/mL (≈ 1.26 to 2.52 µM); with Enterococcus (6 strains), 1 µg/mL (≈ 2.52 µM); in experiment [2] it was 1 µg/mL (≈ 2.52 µM); in experiment [3] it was 0.25 to 0.5 µg/mL (≈ 0.629 to 1.26 µM); in experiment [4], 1 µg/mL (≈ 2.52 µM); in experiment [5], 1 µg/mL (≈ 2.52 µM).

In the case of `CN1C[C@H](c2ccc(-c3ccc4c(c3)OC[C@H]3[C@H](CO)OC(=O)N43)cn2)OC1=O` [Compound 28, (3R,3aS)-3-(hydroxylmethyl)-7-(6-((S)-3-methyl-2-oxazolidin-5-yl)pyridin-3-yl)-3a,4-dihydrobenzo[b]oxazolo[3,4-d][1,4]oxazin-1(3H)-one], the MIC was 1 to 2 µg/mL (≈ 2.52 to 5.03 µM) in experiment [1]; 2 µg/mL (≈ 5.03 µM) in the experiment on Enterococcus (6 strains); 2 µg/mL (≈ 5.03 µM) in experiment [2]; 2 µg/mL (≈ 5.03 µM) in experiment [3]; 2 µg/mL (≈ 5.03 µM) in experiment [4]; 2 µg/mL (≈ 5.03 µM) in experiment [5].

For the molecule `NC1(c2ccc(-c3ccc4c(c3)OC[C@H]3[C@H](CO)OC(=O)N43)cn2)CC1` [Compound 29, (3R,3aS)-7-(6-(1-aminocyclopropyl)pyridin-3-yl)-3-(hydroxylmethyl)-3a,4-dihydrobenzo[b]oxazolo[3,4-d][1,4]oxazin-1(3H)-one], the MIC in experiment [1] is 1 to 2 µg/mL (≈ 2.83 to 5.66 µM); in the experiment on Enterococcus (6 strains), 2 µg/mL (≈ 5.66 µM); in experiment [2] it was 2 to 4 µg/mL (≈ 5.66 to 11.3 µM); in experiment [3], 1 to 2 µg/mL (≈ 2.83 to 5.66 µM); in experiment [4], 1 µg/mL (≈ 2.83 µM); in experiment [5], 1 µg/mL (≈ 2.83 µM).

`NCc1ccc(-c2ccc3c(c2)OC[C@H]2[C@H](CO)OC(=O)N32)cn1` [Compound 30, (3R,3aS)-7-(6-(aminomethyl)pyridin-3-yl)-3-(hydroxylmethyl)-3a,4-dihydrobenzo[b]oxazolo[3,4-d][1,4]oxazin-1(3H)-one]: the MIC lay in the range of 0.5 to 4 µg/mL (≈ 1.53 to 12.2 µM) in experiment [1]; 4 to 8 µg/mL (≈ 12.2 to 24.4 µM) against Enterococcus (6 strains); 2 to 4 µg/mL (≈ 6.11 to 12.2 µM) in experiment [2]; 4 to 16 µg/mL (≈ 12.2 to 48.9 µM) in experiment [3]; 2 to 4 µg/mL (≈ 6.11 to 12.2 µM) in experiment [4]; 1 to 2 µg/mL (≈ 3.05 to 6.11 µM) in experiment [5].

As for `O=C1CNCCN1c1ccc(-c2ccc3c(c2)OC[C@H]2[C@H](CO)OC(=O)N32)cn1` [Compound 31, (3R,3aS)-3-(hydroxylmethyl)-7-(6-(2-oxopiperazin-1-yl)pyridin-3-yl)-3a,4-dihydrobenzo[b]oxazolo[3,4-d][1,4]oxazin-1(3H)-one], the MIC was 2 to 4 µg/mL (≈ 5.05 to 10.1 µM) in experiment [1]; 16 µg/mL (≈ 40.4 µM) against Enterococcus (6 strains); 2 to 4 µg/mL (≈ 5.05 to 10.1 µM) in experiment [2]; 4 µg/mL (≈ 10.1 µM) in experiment [3]; 2 to 4 µg/mL (≈ 5.05 to 10.1 µM) in experiment [4]; 2 to 4 µg/mL (≈ 5.05 to 10.1 µM) in experiment [5].

Consider `NCC1CN(c2ccc(-c3ccc4c(c3)OC[C@H]3[C@H](CO)OC(=O)N43)cn2)C(=O)O1` (stereo partly drawn) [Compound 33, (3R,3aS)-7-(6-(5-(aminomethyl)-2-oxooxazolidin-3-yl)pyridin-3-yl)-3-(hydroxylmethyl)-3a,4-dihydrobenzo[b]oxazolo[3,4-d][1,4]oxazin-1(3H)-one], for which the MIC was 2 µg/mL (≈ 4.85 µM) in experiment [1]; 1 to 2 µg/mL (≈ 2.42 to 4.85 µM) with Enterococcus (6 strains); 1 to 2 µg/mL (≈ 2.42 to 4.85 µM) in experiment [2]; 2 µg/mL (≈ 4.85 µM) in experiment [3]; 1 to 2 µg/mL (≈ 2.42 to 4.85 µM) in experiment [4]; 0.5 to 1 µg/mL (≈ 1.21 to 2.42 µM) in experiment [5].

The values are drawn from US9416144B2, “Benzoxazine oxazolidinone compound, preparation method and application thereof” (priority 2012, dated 2016).
